Measured values from patent publication US20260146035A1, “FUSED BICYCLIC COMPOUNDS AND THEIR USE AS MER AND AXL INHIBITORS” (DONG-A ST CO., LTD., priority 2022, published 2026).
Where two headings read alike, the source gives them in different places.

Key:
human MER (528-end) = biological target: T1, human MER (528-end) (Homo sapiens, UniProt Q12866); assay: HTRF kinase activity biochemical assay, MER; details: 10 μM ATP, 30 minutes pre-incubation; read-out: HTRF MERTK IC50
T1 construct: human MER (528-end); purchased Camnabio, Japan
T1 sequence (Q12866 528-999 limits assumed): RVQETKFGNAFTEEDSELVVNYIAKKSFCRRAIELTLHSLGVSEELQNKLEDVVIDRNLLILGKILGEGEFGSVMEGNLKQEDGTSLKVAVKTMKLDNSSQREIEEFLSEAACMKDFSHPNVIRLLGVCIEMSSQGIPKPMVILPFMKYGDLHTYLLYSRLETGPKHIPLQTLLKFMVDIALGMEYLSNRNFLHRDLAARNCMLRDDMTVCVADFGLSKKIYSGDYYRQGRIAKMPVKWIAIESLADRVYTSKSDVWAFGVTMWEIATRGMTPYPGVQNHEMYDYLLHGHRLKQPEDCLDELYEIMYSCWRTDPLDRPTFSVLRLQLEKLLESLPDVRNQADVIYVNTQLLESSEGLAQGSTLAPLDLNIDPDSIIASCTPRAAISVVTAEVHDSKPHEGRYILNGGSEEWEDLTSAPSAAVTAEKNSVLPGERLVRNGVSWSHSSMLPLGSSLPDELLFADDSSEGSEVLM
Protocol: (§1) For the SAR (structure-activity relationship) and compound screening, HTRF (Homogeneous Time Resolved Fluorescence) kinase activity assay was employed for all MER, AXL and TYRO3 kinases using Cisbio HTRF® KinEASE™-TK kit (Cisbio, USA). The kit included biotin-labeled TK substrate, streptavidin-XL665, Eu3+-cryptate-labeled TK antibody and HTRF® Detection buffer. There are two main steps in the kinase assay: kinase reaction and detection of phosphorylated substrate. The reaction was carried out in white low volume 384-well plate (Corning, USA) with 25 nL compound in dimethyl sulfoxide in each well. […] After 1 hour incubation at room temperature, the fluorescence intensity was measured with Envision[…] plate reader (PerkinElmer, USA). Upon excitation at 340 nm by UV, the energy from Eu3+ donor of the antibody is transferred to the FRET acceptor XL665, and […] emits light at 665 nm.

human TYRO3 (455-end) = biological target: T2, human TYRO3 (455-end) (Homo sapiens, UniProt Q06418); assay: HTRF kinase activity biochemical assay, TYRO3
T2 construct: TYRO3 (455-end); purchased SignalChem, Canada
T2 sequence (Q06418 455-890 limits assumed): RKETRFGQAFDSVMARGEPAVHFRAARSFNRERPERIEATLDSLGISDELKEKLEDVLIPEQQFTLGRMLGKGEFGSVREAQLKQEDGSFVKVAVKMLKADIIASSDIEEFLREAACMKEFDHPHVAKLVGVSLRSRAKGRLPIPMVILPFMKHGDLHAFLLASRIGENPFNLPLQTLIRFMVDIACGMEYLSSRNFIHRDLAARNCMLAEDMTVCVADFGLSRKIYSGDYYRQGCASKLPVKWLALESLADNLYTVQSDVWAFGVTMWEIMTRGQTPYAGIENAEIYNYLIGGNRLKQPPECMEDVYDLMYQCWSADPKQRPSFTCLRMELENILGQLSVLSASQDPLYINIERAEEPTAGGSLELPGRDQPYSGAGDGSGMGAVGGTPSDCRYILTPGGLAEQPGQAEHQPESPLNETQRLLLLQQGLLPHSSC
Protocol: as §1

human AXL (473-end) = biological target: T3, human AXL (473-end) (Homo sapiens, UniProt P30530); assay: HTRF kinase activity biochemical assay, AXL; details: 10 μM ATP, 30 minutes pre-incubation
T3 construct: human AXL (473-end); purchased SignalChem, Canada
T3 sequence (P30530 473-894 limits assumed): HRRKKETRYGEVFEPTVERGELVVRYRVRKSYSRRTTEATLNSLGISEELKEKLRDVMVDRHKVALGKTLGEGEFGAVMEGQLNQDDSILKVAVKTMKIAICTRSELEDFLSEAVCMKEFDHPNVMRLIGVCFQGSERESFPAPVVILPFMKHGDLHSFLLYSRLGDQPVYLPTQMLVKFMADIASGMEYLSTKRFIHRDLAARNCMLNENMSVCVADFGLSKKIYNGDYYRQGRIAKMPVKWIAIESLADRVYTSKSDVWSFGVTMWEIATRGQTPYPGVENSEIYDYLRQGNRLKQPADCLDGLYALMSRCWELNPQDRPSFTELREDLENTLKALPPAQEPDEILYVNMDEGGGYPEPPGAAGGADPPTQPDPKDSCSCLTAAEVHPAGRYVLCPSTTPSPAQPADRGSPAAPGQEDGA
Protocol: as §1

[1] = 10 μM ATP, 30 minutes pre-incubation, read-out: HTRF TYRO IC50

| SMILES | IC50 (human MER (528-end)) [nM] | IC50 (human TYRO3 (455-end); [1]) [nM] | IC50 (human AXL (473-end)) [nM] | IC50 (human TYRO3 (455-end)) [nM] |
| --- | --- | --- | --- | --- |
| CC1(C)CC(N2CCN(CCO)CC2)c2ccc(-c3ccc(CO[C@H]4CCC[C@@H]4NC(=O)c4cc(C(F)(F)F)cnc4N)cc3)cc21 (stereo partly drawn) [Example 130, 2-amino-N-{(1S,2S)-2-[(4-{1-[4-(2-hydroxyethyl)piperazin-1-yl]-3,3-dimethyl-2,3-dihydro-1H-inden-5-yl}phenyl)methoxy]cyclopentyl}-5-(trifluoromethyl)pyridine-3-carboxamide] | < 10 | 100 to 1000 | < 10 |  |
| CN1CCC(n2ccc3cc(-c4ccc(CO[C@H]5CCC[C@@H]5NC(=O)c5cc(-c6cnn(C)c6)cnc5N)cc4)ccc32)CC1 [Example 6, 2-amino-N-[(1S,2S)-2-({4-[1-(1-methylpiperidin-4-yl)-1H-indol-5-yl]phenyl}methoxy)cyclopentyl]-5-(1-methyl-1H-pyrazol-4-yl)pyridine-3-carboxamide] | < 10 | 100 to 1000 | < 10 |  |
| CC1(C)CC(N2CCN(C(CO)CO)CC2)c2ccc(-c3ccc(CO[C@H]4CCC[C@@H]4NC(=O)c4cc(-c5cccnc5F)cnc4N)cc3)cc21 (stereo partly drawn) [Example 140, 6-amino-N-{(1S,2S)-2-[(4-{1-[4-(1,3-dihydroxypropan-2-yl)piperazin-1-yl]-3,3-dimethyl-2,3-dihydro-1H-inden-5-yl}phenyl)methoxy]cyclopentyl}-2′-fluoro[3,3′-bipyridine]-5-carboxamide] | < 10 | 100 to 1000 | < 10 |  |
| Cn1cc(-c2cnc(N)c(C(=O)N[C@H]3CCC[C@@H]3OCc3ccc(-c4cnc5c(c4)C(C)(C)C(=O)N5C4CCN(CCO)CC4)cc3)c2)cn1 [Example 76, 2-amino-N-{(1S,2S)-2-[(4-{1-[1-(2-hydroxyethyl)piperidin-4-yl]-3,3-dimethyl-2-oxo-2,3-dihydro-1H-pyrrolo[2,3-b]pyridin-5-yl}phenyl)methoxy]cyclopentyl}-5-(1-methyl-1H-pyrazol-4-yl)pyridine-3-carboxamide] | 10 to 100 |  | 100 to 1000 | 100 to 1000 |
| Nc1ncc(-c2ccc(F)nc2)cc1C(=O)N[C@H]1COC[C@@H]1OCc1ccc(-c2ccc3c(ccn3C3CCN(CCO)CC3)c2)cc1 [Example 25, 6-amino-6′-fluoro-N-{(3S,4R)-4-[(4-{1-[1-(2-hydroxyethyl)piperidin-4-yl]-1H-indol-5-yl}phenyl)methoxy]oxolan-3-yl}[3,3′-bipyridine]-5-carboxamide] | < 10 | > 1000 | 10 to 100 |  |
| Nc1ncc(-c2ccc(F)nc2)cc1C(=O)N[C@H]1CCC[C@@H]1OCc1ccc(-c2ccc3c(c2)CCCC3N2CCN(CCO)CC2)cc1 (stereo partly drawn) [Example 106, 6-amino-6′-fluoro-N-{(1S,2S)-2-[(4-{5-[4-(2-hydroxyethyl)piperazin-1-yl]-5,6,7,8-tetrahydronaphthalen-2-yl}phenyl)methoxy]cyclopentyl}[3,3′-bipyridine]-5-carboxamide] | < 10 | 10 to 100 | < 10 |  |
| COc1ccnc(N)c1C(=O)N[C@H]1CCC[C@@H]1OCc1ccc(-c2ccc3c(c2)C(C)(C)CC3N2CCN(CCO)CC2)cc1 (stereo partly drawn) [Example 136, 2-amino-N-{(1S,2S)-2-[(4-{1-[4-(2-hydroxyethyl)piperazin-1-yl]-3,3-dimethyl-2,3-dihydro-1H-inden-5-yl}phenyl)methoxy]cyclopentyl}-4-methoxypyridine-3-carboxamide] | < 10 | 100 to 1000 | < 10 |  |
| Cc1csc(-c2cnc(N)c(C(=O)N[C@H]3CCC[C@@H]3OCc3ccc(-c4ccc5c(c4)CC[C@@H]5N4CCN(CCO)CC4)cc3)c2)n1 [Example 181, 2-amino-N-{(1S,2S)-2-[(4-{(1S)-1-[4-(2-hydroxyethyl)piperazin-1-yl]-2,3-dihydro-1H-inden-5-yl}phenyl)methoxy]cyclopentyl}-5-(4-methyl-1,3-thiazol-2-yl)pyridine-3-carboxamide] | < 10 | 10 to 100 | < 10 |  |
| CN1CCN([C@H]2CCc3cc(-c4ccc(CO[C@H]5CCC[C@@H]5NC(=O)c5cc(-c6ccn(C)c(=O)c6)cnc5N)cc4)ccc32)CC1 [Example 115, 6-amino-1′-methyl-N-[(1S,2S)-2-({4-[(1S)-1-(4-methylpiperazin-1-yl)-2,3-dihydro-1H-inden-5-yl]phenyl}methoxy)cyclopentyl]-2′-oxo-1′,2′-dihydro[3,4′-bipyridine]-5-carboxamide] | < 10 | 100 to 1000 | < 10 |  |
| CN(C)CCC(=O)N1Cc2ccc(-c3ccc(CO[C@H]4CCC[C@@H]4NC(=O)c4cc(-c5cnn(C)c5)cnc4N)cc3)cc2C1 [Example 1, 2-amino-N-{(1S,2S)-2-[(4-{2-[3-(dimethylamino)propanoyl]-2,3-dihydro-1H-isoindol-5-yl}phenyl)methoxy]cyclopentyl}-5-(1-methyl-1H-pyrazol-4-yl)pyridine-3-carboxamide] | 100 to 1000 | > 1000 | > 1000 |  |
| Cn1cc(-c2cnc(N)c(C(=O)N[C@H]3CCC[C@@H]3OCc3ccc(-c4ccc5c(c4)CC[C@H]5N4CCN(CC(O)CO)CC4)cc3)c2)cn1 (stereo partly drawn) [Example 101, 2-amino-N-{(1S,2S)-2-[(4-{(1R)-1-[4-(2,3-dihydroxypropyl)piperazin-1-yl]-2,3-dihydro-1H-inden-5-yl}phenyl)methoxy]cyclopentyl}-5-(1-methyl-1H-pyrazol-4-yl)pyridine-3-carboxamide] | 10 to 100 | > 1000 | 10 to 100 |  |
| Nc1ncc(C(F)(F)F)cc1C(=O)N[C@H]1CCC[C@@H]1OCc1ccc(-c2ccc3c(c2)OCCC3N2CCN(CCO)CC2)cc1 (stereo partly drawn) [Example 133, 2-amino-N-{(1S,2S)-2-[(4-{4-[4-(2-hydroxyethyl)piperazin-1-yl]-3,4-dihydro-2H-1-benzopyran-7-yl}phenyl)methoxy]cyclopentyl}-5-(trifluoromethyl)pyridine-3-carboxamide] | < 10 | > 1000 | < 10 |  |
| CC1(C)OCC(CN2CCN(C3CCc4cc(-c5ccc(CO[C@H]6CCC[C@@H]6NC(=O)c6cc(-c7ccc(F)nc7)cnc6N)cc5)ccc43)CC2)O1 (stereo partly drawn) [Example 78, 6-amino-N-[(1S,2S)-2-{[4-(1-{4-[(2,2-dimethyl-1,3-dioxolan-4-yl)methyl]piperazin-1-yl}-2,3-dihydro-1H-inden-5-yl)phenyl]methoxy}cyclopentyl]-6′-fluoro[3,3′-bipyridine]-5-carboxamide] | < 10 | > 1000 | 10 to 100 |  |
| Cn1cc(-c2cnc(N)c(C(=O)N[C@H]3CCC[C@@H]3OCc3ccc(-c4ccc5c(c4)CC[C@@H]5N4CCN(C(CO)CO)CC4)cc3)c2)cn1 [Example 128, 2-amino-N-{(1S,2S)-2-[(4-{(1S)-1-[4-(1,3-dihydroxypropan-2-yl)piperazin-1-yl]-2,3-dihydro-1H-inden-5-yl}phenyl)methoxy]cyclopentyl}-5-(1-methyl-1H-pyrazol-4-yl)pyridine-3-carboxamide] | < 10 | 100 to 1000 | < 10 |  |
